Converted amounts (≈) assume the structure as drawn. “Also recorded” adds a separate entry of the source.
What was measured:
[1] = Single rising dose plasma PK, OZ439 capsule, fasted healthy subjects; assay type: in vivo, human
[2] = Single rising dose plasma PK, OZ439 oral dispersion, fasted healthy subjects; assay type: in vivo, human; conditions: for Tmax / AUC(0-inf) / AUC(0-t) / Cmax: human, plasma, po
[3] = Food effect on plasma PK, 800 mg OZ439 oral dispersion, fed vs fasted; assay type: in vivo; conditions: human; for AUC(0-t): single dose 800 mg OZ439 oral dispersion, geometric mean (CV%)
[4] = Multiple rising dose plasma PK, OZ439 oral dispersion once daily for 3 days; assay type: in vivo, human; conditions: for Rac / AUC(0-t) / Cmax: geometric mean (CV%); for AUC(0-t) / Cmax / Tmax: po; for AUC(0-t): AUC(0,24 h)
[5] = Urinary excretion of OZ439 and metabolites; assay type: in vivo, human; conditions: single rising dose, 0-48 h urine, data not shown
[6] = system: P. falciparum laboratory strain NF54; assay: Ex vivo bioactivity assay of serum samples; assay type: cell-based; conditions: Plasmodium falciparum
CYP3A4 = CYP3A4 induction assay; assay type: in vivo, human; conditions: up to 3 days dosing
[7] = Safety assessment in healthy subjects; assay type: in vivo, human
[8] = Plasma pharmacokinetics of OZ439, summary over single and multiple dose parts; assay type: in vivo, human
[9] = dogs, preclinical; cited from earlier work
Plasmodium berghei = conditions: single oral dose of 20 mg kg^−1; already known; cited from earlier work
[10] = 14 day toxicology or CNS safety pharmacology studies, preclinical; cited from earlier work
[11] = both, human, plasma, oral, 50 mg
[12] = both, human, plasma, oral, 100 mg
[13] = both, human, plasma, oral, 200 mg
[14] = human, plasma, 200 mg, 200 mg once a day for 3 days, oral dispersion, day 1
[15] = human, plasma, 200 mg, 200 mg once a day for 3 days, oral dispersion, day 3
[16] = human, plasma, 400 mg, 400 mg once a day for 3 days, oral dispersion, day 1
[17] = human, plasma, 400 mg, 400 mg once a day for 3 days, oral dispersion, day 3
[18] = human, plasma, 800 mg, 800 mg once a day for 3 days, oral dispersion, day 1
[19] = human, plasma, 800 mg, 800 mg once a day for 3 days, oral dispersion, day 3
[20] = 800 mg oral dispersion, fasted regimen, possibly treatment related
[21] = single dose 1600 mg oral dispersion, related to study drug

c1cc([C@H]2CC[C@]3(CC2)OO[C@]2(O3)C3CC4CC(C3)CC2C4)ccc1OCCN1CCOCC1 [OZ439]
AUC(0-t) [1, 11]: 102 ng·h/mL | Cmax [1, 11]: 17.4 ng/mL | Tmax [1, 11]: 3 h | AUC(0-t) [1, 12]: 249 ng·h/mL | Cmax [1, 12]: 34.2 ng/mL | Tmax [1, 12]: 5 h | AUC(0-t) [1, 13]: 890 ng·h/mL | Cmax [1, 13]: 102 ng/mL | Tmax [1, 13]: 3.5 h | Cmax ([1]; both, human, plasma, oral, 400 mg): 135 ng/mL | inter-subject variability of AUC(0,t) ([1]; capsule): 71.5% | inter-subject variability of Cmax ([1]; capsule): 79.5% | intra-subject variability of AUC(0,t) ([1]; capsule): 92.6% | intra-subject variability of Cmax ([1]; capsule): 77.4% | Tmax ([1]; human, plasma, oral): 3 to 5 h | AUC(0-t) ([1]; human, plasma, oral, 400 mg): 1130 ng·h/mL | Tmax ([1]; human, plasma, oral, 400 mg): 3 h | AUC(0-inf) ([1]; human, plasma, oral, 800 mg): 4690 ng·h/mL | AUC(0-t) ([1]; human, plasma, oral, 800 mg): 3010 ng·h/mL | Cmax ([1]; human, plasma, oral, 800 mg): 315 ng/mL | Tmax ([1]; human, plasma, oral, 800 mg): 3 h | concentration at 24 h ([1]; human, plasma, oral, 800 mg): > 20 ng/mL | AUC(0-inf) ([1]; human, plasma, oral, 1200 mg): 9130 ng·h/mL | AUC(0-t) ([1]; human, plasma, oral, 1200 mg): 6530 ng·h/mL | Cmax ([1]; human, plasma, oral, 1200 mg): 701 ng/mL | Tmax ([1]; human, plasma, oral, 1200 mg): 3 h | time mean plasma concentrations were above 10 ng ml^−1 ([2]; 400 mg oral dispersion, fasted): 36 h | time mean plasma concentrations were above 10 ng ml^−1 ([2]; 800 mg oral dispersion, fasted): 60 h | AUC(0,t), oral dispersion compared with capsule ([2]; 800 mg, fasted): 3.2 fold | Cmax, oral dispersion compared with capsule ([2]; 800 mg, fasted): 2.9 fold | time mean plasma concentrations were above 10 ng ml^−1 ([2]; 1600 mg oral dispersion, fasted): 96 h | Tmax [2]: 3 to 5 h | AUC(0-inf) ([2]; 400 mg): 5540 ng·h/mL | AUC(0-t) ([2]; 400 mg): 5430 ng·h/mL | Cmax ([2]; 400 mg): 566 ng/mL | Tmax ([2]; 400 mg): 3 h | AUC(0-inf) ([2]; 800 mg): 9790 ng·h/mL | AUC(0-t) ([2]; 800 mg): 9630 ng·h/mL | Cmax ([2]; 800 mg): 917 ng/mL | Tmax ([2]; 800 mg): 3 h | AUC(0-t) ([2]; 1600 mg): 17500 ng·h/mL | Cmax ([2]; 1600 mg): 1340 ng/mL | Tmax ([2]; 1600 mg): 5 h | inter-subject variability of AUC(0,∞) ([2]; oral dispersion): 57.2% | inter-subject variability of Cmax ([2]; oral dispersion): 41.8% | intra-subject variability of AUC(0,∞) ([2]; oral dispersion): 23.2% | intra-subject variability of Cmax ([2]; oral dispersion): 14.0% | concentration at 96 h [3]: > 10 ng/mL | AUC(0-t) ([3]; fasted): 7590 ng·h/mL | AUC(0-t) ([3]; fed): 23100 ng·h/mL | Rac ([4]; 400 mg once a day for 3 days, oral dispersion, day 3): 1.76 (29.9) | Rac ([4]; 800 mg once a day for 3 days, oral dispersion, day 3): 1.43 (26.0) | attainment of steady-state ([4]; day 3 of dosing): steady-state was not achieved; also recorded: had not been attained | concentration at 96 h ([4]; human, plasma, oral, 400 mg): ~17 ng/mL | AUC(0-t) [4, 14]: 2640 ng·h/mL | AUC(0-t) [4, 15]: 3060 ng·h/mL | Cmax [4, 14]: 314 ng/mL | Cmax [4, 15]: 342 ng/mL | Tmax ([4]; human, plasma, 200 mg, tmax, 200 mg once a day for 3 days, oral dispersion, day 1, median (range)): 3.5 h | Tmax ([4]; human, plasma, 200 mg, tmax, 200 mg once a day for 3 days, oral dispersion, day 3, median (range)): 3 h | AUC(0-t) [4, 16]: 4560 ng·h/mL | AUC(0-t) [4, 17]: 7990 ng·h/mL | Cmax [4, 16]: 505 ng/mL | Cmax [4, 17]: 764 ng/mL | Tmax ([4]; human, plasma, 400 mg, tmax, 400 mg once a day for 3 days, oral dispersion, day 1, median (range)): 3.5 h | Tmax ([4]; human, plasma, 400 mg, tmax, 400 mg once a day for 3 days, oral dispersion, day 3, median (range)): 3 h | AUC(0-t) [4, 18]: 9570 ng·h/mL | AUC(0-t) [4, 19]: 13700 ng·h/mL | Cmax [4, 18]: 1130 ng/mL | Cmax [4, 19]: 1390 ng/mL | Tmax ([4]; human, plasma, 800 mg, median tmax, 200, 400 or 800 mg once daily for 3 days, oral dispersion): 3 h | Tmax ([4]; human, plasma, 800 mg, tmax, 800 mg once a day for 3 days, oral dispersion, day 1, median (range)): 3 h | Tmax ([4]; human, plasma, 800 mg, tmax, 800 mg once a day for 3 days, oral dispersion, day 3, median (range)): 3 h | inter-subject variability of AUC(0,24 h) ([4]; multiple dose, oral dispersion): 54.1% | inter-subject variability of Cmax ([4]; multiple dose, oral dispersion): 48.9% | urinary concentrations [5]: low or below the limit of quantitation | IC50 ([6]; NF54, ex vivo serum samples, average value): 1.5 ng/mL (≈ 3.19 nM) | IC50 ([6]; NF54, ex vivo serum samples, general range): 1.3 to 2 ng/mL (≈ 2.77 to 4.26 nM) | IC50 ([6]; NF54, pre-dose serum spiked with a known amount of OZ439): 1.7 ng/mL (≈ 3.62 nM) | induction of CYP3A4 (CYP3A4): did not induce | subjects experiencing AEs ([7]; 200 mg once daily for 3 days): Three of six | subjects experiencing AEs ([7]; 400 mg once daily for 3 days): 1/6 | subjects experiencing AEs ([7]; 800 mg once daily for 3 days): 4/6 | headache [7, 20]: 1/12 | nausea [7, 20]: 1/12 | oropharyngeal pain [7, 20]: 1/12 | subjects experiencing AEs ([7]; 800 mg oral dispersion, fed regimen): Three of 12 | headache ([7]; 800 mg oral dispersion, fed regimen, possibly treatment related): 2/12 | safety and tolerability ([7]; 200, 400 and 800 mg once daily for 3 days): safe and well tolerated | effect on QTc interval ([7]; healthy subjects): no significant effect | overall incidence of AEs ([7]; other single rising dose groups, out of 6–8): 0–2 subjects | safety and tolerability ([7]; single dose 800 mg oral dispersion, fasted or fed): safe and well tolerated | overall incidence of AEs ([7]; single dose 1600 mg oral dispersion): 5/6 | diarrhoea [7, 21]: 3/6 | gastrointestinal hypermotility [7, 21]: 2/6 | nausea [7, 21]: 3/6 | effect on audiometry/BAEP ([7]; single dose and repeat dose parts): no clinically significant changes; also recorded: No effect | safety and tolerability ([7]; single doses 50 mg up to 1200 mg capsule, oral dispersion up to 1600 mg): safe and well tolerated | Tmax ([8]; human, plasma, oral): ~3 h | time plasma concentrations exceed the estimated minimum effective concentration ([8]; well tolerated dose levels): ~96 h | no observed adverse effect level (NOAEL) [9]: 20 mg/kg/day | cure of Plasmodium berghei-infected mice (Plasmodium berghei): completely cures | central nervous system toxicity [10]: no preclinical evidence of central nervous system toxicity

— paper PMC3558805 (British Journal of Clinical Pharmacology, 2012)
